6 compounds from patent US20230406859A1, “METHOTREXATE ANALOGS AND METHODS OF USE” (The United States of America, as represented by the …, priority 2020, published 2023) can be followed below.

One data set relates to HBL1 cell line. Briefly: CellTiter-Glo cell viability (cytotox), HBL1 cell line, 72 hours. It counts as cell-based. On the procedure: (§1) CellTiter-Glo viability assays: Five μL of cells (2500 cells) from the 12-well plate culture were plated into white 1536-well plates (Greiner, Monroe, NC, 789173-F) in 6 replicates. CellTiter-Glo Luminescent Cell Viability Assay (CTG) (Promega, G7572), 2.5 μL/well reagent was added with a BioRAPTR FRD (Beckman Coulter, Sykesville, MD), plates were incubated in the dark at ambient temperature for 10 min, and luminescence measured with a ViewLux 1430 Ultra HTS (Perkin Elmer, Waltham, MA).
(In general: In ATP-based viability assays light output follows the ATP content of the culture.)

The target in data set [1] is T1, human DHFR-HiBiT fusion protein (Homo sapiens, UniProt P00374).
T1 construct: expressed in transfected cells; host or cells: HBL1 cells retrovirally infected with pBMN-Ires-Lyt-2 carrying DHFR-HiBiT
T1 sequence (P00374 with tags, fused parts or gaps): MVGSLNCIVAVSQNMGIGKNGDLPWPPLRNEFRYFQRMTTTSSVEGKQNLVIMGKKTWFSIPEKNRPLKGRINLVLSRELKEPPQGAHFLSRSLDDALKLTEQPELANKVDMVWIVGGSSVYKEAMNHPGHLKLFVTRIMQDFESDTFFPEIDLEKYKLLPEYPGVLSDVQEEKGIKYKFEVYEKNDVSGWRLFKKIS
The experiment in a line: DHFR-HiBiT assay (high-throughput DHFR abundance) in HBL1 cells. The class given is cell-based. The note with it: for Dmax: % change in untreated cellular DHFR level (control), negative = degradation, positive = stabilization, HBL1, 24 h, read-out: efficacy (%). The text has this: The human DHFR-HiBiT construct was synthetized (Bio Basic) and cloned into the retroviral vector pBMN-Ires-Lyt-2 (provided by G. Nolan, Stanford University, Stanford, CA) which expresses the coding region of mouse CD8a (Lyt-2) using the restriction sites BamHI/XhoI. All constructs were sequenced to validate authenticity. Infected cells were positively selected based on murine CD8a expression using magnetic beads (Miltenyi Biotech).
Cell culture: Human embryonic kidney HEK293T cells were maintained in DMEM (Gibco) supplemented with 10% fetal bovine serum (Hyclone), 2 mmol/L 1-glutamine, HEPES (Gibco) and 100 U/mL penicillin/streptomycin (Invitrogen). The lymphoma cell line HBL1 were maintained in RPMI (Life Technology) supplemented with 5% fetal bovine serum (Hyclone), 2 mmol/L L-glutamine, HEPES (Gibco) and 100 U/mL penicillin/streptomycin (Invitrogen).
Transfection and retroviral infections: Transfections were performed using Lipofectamine 2000 (Invitrogen) according to the manufacturer's protocol. For retroviral infections, viruses were produced in HEK293T cells and used to infect HBL1 cell line. […] Supernatants containing the retrovirus were collected and filtered at 48- and 72-hours post-transfection. HBL1 cells were centrifuged and then resuspended with the retroviral supernatant with 8 μg/ml of polybrene. The cells were spin-infected twice on consecutive days at 2,500 rpm, at RT, for 90 minutes.
Lytic HiBiT Detection: Cells were plated in solid white 1536-well tissue culture plates (Greiner), at the concentration of 2000 cells/well. After treatment, an equal volume of Nano-Glo HiBiT Lytic Reagent (Promega) containing the substrate furimazine and Large BiT (LgBiT) was added to the cells according to the manufacturer's protocol. Cells were incubated for 10 min at room temperature, and luminescence was measured using a Perkin Elmer ViewLux microplate imager with 30 seconds of exposure time.
A general note: With HiBiT, luminescence reflects the tagged protein that the partner subunit can reach.

Data set [2] has as its system MTX-resistant HBL1 cell line. The class given is cell-based. The protocol: as §1
A further data set deals with 293T cells. The experiment in a line: CellTiter-Glo ATP levels in 293T cells. It counts as cell-based, human. The protocol: (§2) Cell Culture Methods: Cells (HBL1, immortalized fibroblasts from a healthy donor, or 293T) were seeded at the numbers indicated in a 12-well plate in 500 ul. […] Human embryonic kidney HEK293T cells and immortalized fibroblasts were maintained in DMEM (Gibco) supplemented with 10% fetal bovine serum (Hyclone), 2 mmol/L L-glutamine, Hepes (Gibco), and 100 U/mL penicillin/streptomycin (Invitrogen). The lymphoma cell line HBL1 was maintained in RPMI (Life Technology) supplemented with 5% fetal bovine serum (Hyclone), 2 mmol/L 1-glutamine, Hepes (Gibco), and 100 U/mL penicillin/streptomycin (Invitrogen). Cells were cultured in incubators maintained at 37° C., with 5% CO2 and 85% humidity.
(§3) Cell-Titer-Glo viability assays: Five μL of cells (2500 cells) from the 12-well plate culture were plated into white 1536-well plates (Greiner, Monroe, NC, 789173-F) in 6 replicates. CellTiter-Glo Luminescent Cell Viability Assay (CTG) (Promega, G7572), 2.5 μL/well reagent was added with a BioRAPTR FRD (Beckman Coulter, Sykesville, MD), plates were incubated in the dark at ambient temperature for 10 min, and luminescence measured with a ViewLux 1430 Ultra HTS (Perkin Elmer, Waltham, MA).

The test system of another data set is HBL1 cells. Briefly: CellTiter-Glo assay of cellular ATP levels in HBL1 cells (16 h). It counts as cell-based. On the procedure:
as §2, §3

The subject of another data set is fibroblasts. The experiment in a line: CellTiter-Glo ATP levels in fibroblasts. The class given is cell-based. The protocol:
as §2, §3

The target of data set [3] is T2, thymidylate synthase (TS) (Homo sapiens, UniProt P04818). Briefly: Western blot of thymidylate synthase levels in HBL1 cells. It counts as cell-based. The note with it: 1 μM, 16 h. On the set-up: Western blot detection of folate-cofactor dependent enzyme levels after treatment of HBL1 cells; endogenous in cells; host or cells: HBL1 lymphoma cell line.
Data set [4] deals with T2, thymidylate synthase (TS). The experiment in a line: Western blot of thymidylate synthase levels in fibroblasts. It counts as cell-based. The note with it: 16 h. (In general: A western blot detects proteins with antibodies after separation by electrophoresis.)
In data set [5] the target is T2, thymidylate synthase (TS). The experiment in a line: Western blot of thymidylate synthase levels in 293T cells. The note with it: 16 h. It counts as cell-based.
Data set [6] concerns the target T3, DHFR (Homo sapiens, UniProt P00374).
T3 construct: Western blot detection of DHFR levels after treatment of HBL1 cells for 16 h; endogenous in cells; host or cells: HBL1 lymphoma cell line
T3 sequence (P00374 1-187): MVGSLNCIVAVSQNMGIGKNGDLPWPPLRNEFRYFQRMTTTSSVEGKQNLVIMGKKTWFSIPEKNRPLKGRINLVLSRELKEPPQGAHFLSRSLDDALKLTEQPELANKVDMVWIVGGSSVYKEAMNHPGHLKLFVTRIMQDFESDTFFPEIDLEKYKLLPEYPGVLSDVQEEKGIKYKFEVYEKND
The class given is cell-based. The note with it: HBL1 cells, Western blot. The text has this:
Human embryonic kidney HEK293T cells and immortalized fibroblasts were maintained in DMEM (Gibco) supplemented with 10% fetal bovine serum (Hyclone), 2 mmol/L L-glutamine, Hepes (Gibco), and 100 U/mL penicillin/streptomycin (Invitrogen). The lymphoma cell line HBL1 was maintained in RPMI (Life Technology) supplemented with 5% fetal bovine serum (Hyclone), 2 mmol/L 1-glutamine, Hepes (Gibco), and 100 U/mL penicillin/streptomycin (Invitrogen).
Western blotting: Cells at confluence from 12-well plate treatments were washed with PBS and lysed in 75 μL/well NP40 lysis buffer (Cell Signaling), subjected to agitation and centrifugation. Approximately 100 μg of total protein was used per analysis. […] Blots were first incubated with 1:2000 dilution of anti-human DHFR antibody (Abcam, ab124814, host rabbit) for 16 h at 4° C. with shaking, washed 3× with TBS-T and incubated with 1:2000 dilution of anti-human β-actin primary antibody (Cell Signaling, host mouse) for 1 h at ambient temperature with shaking. Blots were then washed 3× with TBS-T and incubated with 1:5000 HRP secondary antibody (Novex, anti-Rabbit IgG raised in Goat, 1 mg/ml) for 1 h at ambient temperature, then washed with 3×TBS-T and developed with Pierce ECL Dura reagent for 5 min. Immunoreactive bands were imaged on a ChemiDoc Imaging System (Bio-Rad) with 20 s chemiluminescence exposure. The molecular weight marker ladder was imaged with colorimetric auto-exposure, and both images merged.

The target in data set [7] is T3, DHFR. The experiment in a line: Western blot detection of DHFR levels in fibroblasts. It counts as cell-based. The following applies: 16 h at 1 μM. On the procedure:
as §2
Western blotting: Cells at confluence from 12-well plate treatments were washed with PBS and lysed in 75 μL/well NP40 lysis buffer (Cell Signaling), subjected to agitation and centrifugation. Approximately 100 μg of total protein was used per analysis. Proteins were sized on a NuPAGE 12% Bis-Tris Gel, 1.0 mm×10 wells, proteins transferred to 0.2 μm nitrocellulose membrane for 60 min followed by blocking with 5% t milk in TBS-T for 1 h at ambient temperature with gentle shaking. […]

Setting [8] is: HBL1 cell line, CellTiter-Glo, unit inferred.

Where two headings read alike, the source gives them in different places.

T2 sequence (P04818 2-313 limits assumed): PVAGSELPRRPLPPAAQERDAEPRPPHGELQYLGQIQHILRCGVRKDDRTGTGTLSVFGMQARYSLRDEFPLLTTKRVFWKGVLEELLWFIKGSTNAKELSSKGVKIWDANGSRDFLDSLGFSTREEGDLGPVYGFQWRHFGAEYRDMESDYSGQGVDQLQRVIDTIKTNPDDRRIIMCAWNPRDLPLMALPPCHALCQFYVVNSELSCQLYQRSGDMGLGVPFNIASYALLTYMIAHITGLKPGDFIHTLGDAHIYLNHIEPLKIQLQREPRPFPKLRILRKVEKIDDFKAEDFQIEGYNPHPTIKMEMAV

Regarding `CN(Cc1cnc2nc(N)nc(N)c2n1)c1ccc(C(=O)NC(CC(F)C(=O)O)C(=O)O)cc1` (stereo not shown) [FMTX, 2-(4-(((2,4-diaminopteridin-6-yl)methyl)(methyl)amino)benzamido)-4-fluoropentanedioic acid, reference compound], in the data set on HBL1 cell line (setting [8]), the IC50 (as a rule, the concentration needed to halve the response being measured) was determined as 1.1 µM. Also, in data set [1], the Dmax is -115%. The DC50 in data set [1] (HBL1 cells expressing DHFR-HiBiT, 24 h, degradation or stabilization potency, average of N = 2-5, read-out: Ave EC50) was found to be 0.28 µM. Further, the “cellular toxicity in MTX-resistant HBL1 cell line” value in data set [2] was “greatly decreased”.

Consider `CN(Cc1cnc2nc(N)nc(N)c2n1)c1ccc(C(=O)N[C@@H](CCC(=O)O)C(=O)O)cc1` [MTX, (4-(((2,4-diaminopteridin-6-yl)methyl)(methyl)amino)benzoyl)-L-glutamic acid, reference compound], for which the “effect on ATP levels” value with 293T cells and with fibroblasts was “ATP-depleting properties” in each case. The IC50 with HBL1 cell line was 0.0571 µM; in the data set on HBL1 cells (HBL1, 16 h, read-out: IC50 for cellular ATP-depletion) it was roughly 0.2 µM. Further, in [2], the “cellular toxicity in MTX-resistant HBL1 cell line” value is listed as “greatly decreased”. Further, the “effect on cellular ATP levels (acute cellular toxicity)” value in the data set on HBL1 cells was “significantly depleted ATP levels”.

On to `CN(Cc1cnc2nc(N)nc(N)c2n1)c1ccc(C(=O)N[C@@H](CCC(=O)NCCCCCCCCNc2cccc3c2C(=O)N(C2CCC(=O)NC2=O)C3=O)C(=O)O)cc1` (stereo partly drawn) [NCGC00685928, N2-(4-(((2,4-diaminopteridin-6-yl)methyl)(methyl)amino)benzoyl)-N5-(8-((2-(2,6-dioxopiperidin-3-yl)-1,3-dioxoisoindolin-4-yl)amino)octyl)-L-glutamine], for which the “effect on TS protein level” value in data set [3] was “slight increase in TS”; in data set [4], “low but detectable increases in TS”; in data set [5], “no significant change in TS levels”. The IC50 in the data set with HBL1 cell line (setting [8]) turned out to be 23.7 µM. Also, the Dmax in [1] worked out at 65%. Besides, the “effect on DHFR protein levels” value at DHFR [6] is “robust DHFR depletion”.

Regarding `Cc1ncsc1-c1ccc(CNC(=O)C2C[C@@H](O)CN2C(=O)C(NC(=O)COCCOCCOCCOCCNC(=O)CC[C@H](NC(=O)c2ccc(N(C)Cc3cnc4nc(N)nc(N)c4n3)cc2)C(=O)O)C(C)(C)C)cc1` (stereo partly drawn) [NCGC00685964, (23S)-23-(4-(((2,4-diaminopteridin-6-yl)methyl)(methyl)amino)benzamido)-3-((4R)-4-hydroxy-2-((4-(4-methylthiazol-5-yl)benzyl)carbamoyl)pyrrolidine-1-carbonyl)-2,2-dimethyl-5,20-dioxo-7,10,13,16-tetraoxa-4,19-diazatetracosan-24-oic acid], the IC50 with HBL1 cell line (setting [8]) worked out at 21.5 µM. Also, the “effect on DHFR protein levels” value at DHFR [6] is given as “no alterations in DHFR protein levels”.

On to `Cc1ncsc1-c1ccc(CNC(=O)C2C[C@@H](O)CN2C(=O)C(NC(=O)COCCOCCNC(=O)CC[C@H](NC(=O)c2ccc(N(C)Cc3cnc4nc(N)nc(N)c4n3)cc2)C(=O)O)C(C)(C)C)cc1` (stereo partly drawn) [NCGC00685995, (17S)-17-(4-(((2,4-diaminopteridin-6-yl)methyl)(methyl)amino)benzamido)-3-((4R)-4-hydroxy-2-((4-(4-methylthiazol-5-yl)benzyl)carbamoyl)pyrrolidine-1-carbonyl)-2,2-dimethyl-5,14-dioxo-7,10-dioxa-4,13-diazaoctadecan-18-oic acid], for which the “effect on ATP levels” value in the data set with 293T cells (293T cells, CellTiter-Glo) is “not observed”; with fibroblasts (fibroblasts, CellTiter-Glo), “not observed”. Moreover, 20.2 µM corresponded to half-maximal inhibition in the data set on HBL1 cell line (setting [8]) (IC50). Moreover, the “effect on DHFR protein levels” value at DHFR [6] is recorded as “no alterations in DHFR protein levels”; at DHFR [7], “MTX-like stabilization of DHFR”.

In turn, `COC(=O)[C@H](CCC(=O)NCCOCCOCCOCCNC(=O)COc1cccc2c1C(=O)N(C1CCC(=O)NC1=O)C2=O)NC(=O)c1ccc(N(C)Cc2cnc3nc(N)nc(N)c3n2)cc1` (stereo partly drawn) [NCGC00842394, Methyl (19S)-19-(4-(((2,4-diaminopteridin-6-yl)methyl)(methyl)amino)benzamido)-1-((2-(2,6-dioxopiperidin-3-yl)-1,3-dioxoisoindolin-4-yl)oxy)-2,16-dioxo-6,9,12-trioxa-3,15-diazaicosan-20-oate] yielded an IC50 with HBL1 cell line (setting [8]) of 33.9 µM. Moreover, the Dmax in data set [1] was determined as 27.6%.
